Measured values published in BindingDB's records for doi:10.1016/0960-894X(95)00325-N (1995).

assay: Binding affinity by its ability to displace [3H]DPDPE from delta receptor in homogenates of guinea pig brain

Compound | Ki [nM]
COc1cccc2c1[C@]13CCN(C)[C@H](C2)[C@]1(OC)CCC(=O)C3 [3,10-dimethoxy-17-methyl-(10S)-17-azatetracyclo[7.5.3.01,10.02,7]heptadeca-2(7),3,5-trien-13-one] | 46
COc1cccc2c1[C@]13CCN(CCc4ccccc4)C(C2)[C@]1(OC)CCC(=O)C3 [3,10-dimethoxy-17-phenethyl-17-azatetracyclo[7.5.3.01,10.02,7]heptadeca-2(7),3,5-trien-13-one; with HBr] | 49
COc1cccc2c1[C@]13CCN(CC4CC4)[C@H](C2)[C@]1(OC)CCC(=O)C3 [Naltrindole analogue] | 105
